Columns and labels:
[1] = system: Wnt-responsive Sp5-Luc reporter in SW480 colon carcinoma cells; experiment: Screening assay for Wnt activity (Sp5-Luc reporter gene assay); settings: Homo sapiens; for EC50: SW480; for inhibition at 10 µM: SW480, read-out: percent inhibition at 10 μM
[2] = system: SW480 colon carcinoma cells; experiment: Cell viability assay (CellTiter-Glo); settings: Homo sapiens; for EC50: SW480, 96 h; for inhibition at 10 µM: SW480, read-out: percent inhibition at 10 μM
Protocol: Representative compounds were screened using the assay procedure to assess the effect on cell viability as described below.
SW480 colon carcinoma cells were transduced with a lentiviral vector expressing luciferase with a human Sp5 promoter consisting of a sequence of eight TCF/LEF binding sites. […] These stably transduced SW480 cells were expanded in cell culture and used for all further screening activities. Each compound was dissolved in DMSO as a 10 mM stock and used to prepare compound source plates.
For the Cell Viability Assays, the cells were plated at 2,000 cells/well in 384-well plates with a DMEM medium containing 1% fetal bovine serum, and 1% Penicillin-Streptomycin and incubated for four days hours at 37° C. and 5% CO2. Eight replicates of DMSO-treated cells served as controls and cells treated with compound were performed in duplicate.
After incubation, 10 μL of CellTiter-Glo (Promega) was added to each well allowed to incubate for approximately 12 minutes. This reagent “results in cell lysis and generation of a luminescent signal proportional to the amount of ATP present. The amount of ATP is directly proportional to the number of cells present in culture, in agreement with previous reports. The CellTiter-Glo Assay generates a “glow-type” luminescent signal, produced by the luciferase reaction (Promega.com)”.
Dose-response curves were generated and EC50 concentration values were calculated using non-linear regression curve fit in the GraphPad Prism (San Diego, Calif.) or Dotmatics' Studies Software (Bishops Stortford, UK).

[3] = system: Tau phosphorylation at Threonine 212 (pT212Tau); experiment: Tau phosphorylation at Threonine 212 (pT212Tau) in Dyrk1a- and MAPT-overexpressing HEK293T cells, sandwich ELISA; type: cell-based; settings: Homo sapiens, HEK-293T, overnight (16-18 hours), read-out: Thr212 EC50
Protocol: HEK293T cells (transfectable human embryonic kidney cells) were cultured in DMEM medium supplemented with 10% FBS and 1% penicillin/streptomycin.
HEK293T cells were transiently transfected to overexpress Dyrk1a and microtubule-associated protein Tau (MAPT) genes. Specifically, Dyrk1a and MAPT expression vectors were obtained from OriGene (10 μg of each, catalog numbers SC314641 and RC216166, respectively). A MaxiPrep for each vector was ordered and received from GeneWiz, yielding 874.5 μg (resuspended at […]) of the Dyrk1a expression vector, and 898 μg (resuspended at […]) of MAPT.
HEK293T cells were seeded at 1.0×10^7 cells in 10 mL per T-75 flask. […] One T-75 flask was designated as a no-vector negative control for pT212Tau signal.
After 4-6 hours of incubation in transfection reagents, transiently double transfected HEK293T cells were dissociated by treatment with trypsin EDTA and seeded at 1.0×10^5 cells in 100 μL per well in 96-well plates. No-vector negative controls were seeded in separate 96-well plates to avoid the risk of the negative control cells picking up the overexpression during incubation. At the time of seeding, DMSO-resuspended Samumed compounds were dispensed to eight wells as a serial dilution from 10 μM to 4.6 nM final concentration in medium, or at 0.12 μM to 0.05 nM with particularly potent compounds. Cells were exposed to the representative compounds overnight (16-18 hours) in a 37° C. incubator.
96-Well flat-bottom plates were coated with 100 μL per well anti-HT7 capture antibody (ThermoFisher, MN1000) diluted 1:300 in 1×PBS at 4° C. overnight, with shaking at 500 rpm. After overnight capture antibody incubation, coated plates were washed four times with 200 μL per well of 1×PBS-0.05% Tween-20, and blocked for 1 hour with 200 μL per well of 1×PBS with 2% BSA. After 1 hour of blocking, plates were washed four times with 200 μL per well of 1×PBS-0.05% Tween-20, prior to sample loading.
Wells of compound-treated cells were visually checked for cell death before being washed with 200 μL per well of 1×DPBS supplemented with phosphatase inhibitor diluted to 1×. Cells were then lysed with 100 μL 1×RIPA buffer supplemented with phosphatase and protease inhibitors (each diluted to a final 1×). Cells were shaken at 500 rpm, 4° C. for 20 minutes prior to further lysis (via manual scraping) and transfer to 96-well V-bottom collection plates (Corning, 3894). V-bottom plates were centrifuged at 4000 rpm, 4° C., for 15 minutes, and 100 μL of lysate supernatant from each well was directly tested for pT212Tau signal by sandwich ELISA.
Specifically, lysates were directly transferred to the coated and blocked ELISA plates for 2 hours before plates were washed four times with 200 μL per well of 1×PBS-0.05% Tween-20 and probed with 100 μL per well of anti-pT212Tau antibody (ThermoFisher, 44-740G) diluted 1:200 in 1×PBS for 2 hours. Plates were washed four times with 200 μL per well of 1×PBS-0.05% Tween-20 and probed with 100 μL per well of anti-rabbit/HRP conjugate (Cell Signaling Technology, 7074S) diluted 1:600 in 1×PBS for 1 hour. Plates were washed four times with 200 μL per well of 1×PBS-0.05% Tween-20 before 100 μL per well of TMB substrate solution (ThermoFisher, N301) was added. When colour development was observed, 100 μL per well of stop solution (ThermoFisher, N600) was added, and colorimetric detection of pT212Tau signal was read at 450 nm with the Cytation 3 Cell Imaging Multi-Mode Reader (BioTek). The signal was used to plot, draw the curves fitting, and determine the EC50 values in GraphPad Prism for tested representative compounds.

IL-6 = IL-6 inhibition in LPS-stimulated human peripheral blood mononuclear cells (HTRF); settings: Homo sapiens, PBMC; for EC50: 22 h; for inhibition at 10 µM: read-out: percentage in parentheses after EC50 >10
[4] = system: α-smooth muscle actin (aSMA) positive LL29 cells; experiment: Inhibition of the fibrotic process: αSMA staining in TGF-β1 treated LL29 fibroblasts from IPF patients; settings: Homo sapiens, Fibroblast; for EC50: 96 h; for inhibition at 10 µM: read-out: percentage in parentheses after EC50 >10
DYRK1A kinase = DYRK1A kinase (Homo sapiens, UniProt Q13627); experiment: DYRK1A kinase activity (Ser/Thr 18 peptide Z-lyte FRET assay); type: biochemical; settings: recombinant DYRK1A, 30 μM ATP, one hour at room temperature;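 note: kinase activity read as coumarin/fluorescein emission ratio after development step, with unphosphorylated and phosphorylated peptide forms setting 0% and 100% controls, values from dose-response curves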
GSK3β kinase = GSK3β kinase (Homo sapiens, UniProt P49841); experiment: GSK3β kinase activity (Ser/Thr 09 peptide Z-lyte FRET assay); type: biochemical; settings: recombinant kinase, 46 μM ATP, one hour at room temperature; read-out: EC50
Chain of GSK3β kinase (P49841 whole entry): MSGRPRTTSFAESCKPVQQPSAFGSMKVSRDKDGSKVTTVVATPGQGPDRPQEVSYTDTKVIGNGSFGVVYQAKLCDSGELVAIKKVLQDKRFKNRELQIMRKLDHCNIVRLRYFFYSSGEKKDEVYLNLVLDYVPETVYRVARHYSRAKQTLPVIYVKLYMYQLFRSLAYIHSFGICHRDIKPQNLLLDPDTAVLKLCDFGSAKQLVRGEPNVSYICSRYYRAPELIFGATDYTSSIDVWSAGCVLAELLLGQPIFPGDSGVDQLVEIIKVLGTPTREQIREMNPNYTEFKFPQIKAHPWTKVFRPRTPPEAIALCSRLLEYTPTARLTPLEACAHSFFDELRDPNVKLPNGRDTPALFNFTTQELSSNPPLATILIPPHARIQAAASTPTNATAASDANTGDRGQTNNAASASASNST
Protocol: Each compound is dissolved in DMSO as a 10 mM stock and used to prepare compound source plates. Serial dilution (1:3, 11-point dose-response curves from 10 μM to 0.0003 μM) and compound transfer was performed using the ECHO 550 (Labcyte, Sunnyvale, Calif.) into 1536-well black-walled round bottom plates (Corning).
This is a non-radioactive assay using fluorescence resonance energy transfer (FRET) between coumarin and fluorescein to detect kinase activity which is represented as ratio of coumarin emission/fluorescein emission.
The mixture is allowed to incubate with the representative compounds for one hour at room temperature. All reactions were performed in duplicate. Unphosphorylated (“0% Control”) and phosphorylated (“100% control”) forms of Ser/Thr 18 serve as control reactions.
After incubation, diluted Development Buffer is added to the reaction and allowed to further incubate for one hour at room temperature.
Dose-response curves are generated and inhibitory concentration (IC50) values are calculated using non-linear regression curve fit in the Dotmatics' Studies Software (Bishops Stortford, UK).

[5] = system: secreted cytokines TNFα, IL-6 and KC-GRO; experiment: Secreted cytokines in Lipopolysaccharide-stimulated BV-2 cells (Table 9 does not say which cytokine); type: cell-based, mouse; settings: Mus musculus, BV-2, 5 h; read-out: EC50
[6] = system: Tau phosphorylation at Ser396 (pSer396); experiment: Tau phosphorylation at Ser396 (pSer396) in SH-SY5Y cells, ELISA / western blot; type: cell-based, human; settings: Homo sapiens; SH-SY5Y cells, overnight (16-18 h); read-out: pSer396 Tau EC50;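 note: decrease in pSer396 Tau measured in lysates of treated cells by colorimetric ELISA or chemiluminescent western blot, same pSer396 antibody for both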
Protocol: Two days before treatment, cells were seeded onto 96 well plates at 5×10^4 cells/well.
The above synthesized compounds were screened using the cell assay procedure to assess decrease Tau phosphorylation at Ser396 (pSer396) described below.
Cells were lysed with RIPA buffer complemented with phosphatase and protease inhibitors then lysates were spun down at 12,000 g for 10 min to remove any cellular debris.

Structure (SMILES) | EC50 [1] | inhibition at 10 µM [1] | EC50 [2] | inhibition at 10 µM [2] | EC50 [3] | EC50 (IL-6) | inhibition at 10 µM (IL-6) | EC50 [4] | inhibition at 10 µM [4] | EC50 (DYRK1A kinase) | EC50 (GSK3β kinase) | EC50 [5] | EC50 [6]
CN1CCCN(CC(=O)Nc2cc3nc(-c4cnn(C)c4)ccc3cn2)CC1 [Compound 105, 2-(4-Methyl-1,4-diazepan-1-yl)-N-(2-(1-methyl-1H-pyrazol-4-yl)-1,6-naphthyridin-7-yl)acetamide] | > 10000 nM | 45.4% | > 10 µM | 38.9% | 263 nM | > 10 µM | 2.6% | > 10 µM | 16.9% | 71 nM | 541 nM | 1130 nM | –
Cn1ncc(-c2ccc3cnc(NC(=O)C4CC5(C4)CN(CCF)C5)cc3n2)c1CN1CCCCC1 [Compound 280, 2-(2-Fluoroethyl)-N-(2-(1-methyl-5-(piperidin-1-ylmethyl)-1H-pyrazol-4-yl)-1,6-naphthyridin-7-yl)-2-azaspiro[3.3]heptane-6-carboxamide] | > 10000 nM | 33.7% | 2.41 µM | – | 32 nM | 5.71 µM | – | 2.52 µM | – | 150 nM | 335 nM | – | –
Cc1ncc(-c2ccc3cnc(NC(=O)N4CCC(N5CCOCC5)CC4)cc3n2)o1 [Compound 566, N-(2-(2-Methyloxazol-5-yl)-1,6-naphthyridin-7-yl)-4-morpholinopiperidine-1-carboxamide] | > 10000 nM | 33.2% | > 10 µM | 19.7% | 6600 nM | > 10 µM | 3.6% | > 10 µM | 35.2% | 77 nM | 621 nM | – | –
Cn1cncc1-c1ccc2cnc(NC(=O)c3ccc(F)cc3)nc2c1 [Compound 1354, 4-Fluoro-N-(7-(1-methyl-1H-imidazol-5-yl)quinazolin-2-yl)benzamide] | 2380 nM | – | 5.34 µM | – | 6 nM | > 10 µM | 39.9% | 5.09 µM | – | 2 nM | 1170 nM | – | –
Cc1nnc(-c2ccc3cnc(NC(=O)CN4C5CCC4CC5)nc3c2)s1 [Compound 1632, 2-(7-Azabicyclo[2.2.1]heptan-7-yl)-N-(7-(5-methyl-1,3,4-thiadiazol-2-yl)quinazolin-2-yl)acetamide] | > 10000 nM | 19.2% | > 10 µM | 21.3% | 402 nM | > 10 µM | 4.2% | > 10 µM | 28.8% | 500 nM | 943 nM | – | –
Cn1cc(-c2ccc3nnc(NC(=O)C4CC4)cc3c2)cn1 [Compound 1815, N-(6-(1-Methyl-1H-pyrazol-4-yl)cinnolin-3-yl)cyclopropanecarboxamide] | > 10000 nM | 12.9% | > 10 µM | 15.8% | > 10000 nM | > 10 µM | 7% | > 10 µM | 33.5% | > 10000 nM | > 10000 nM | – | > 10 µM
Cn1cc(-c2cnc3cnc(NC(=O)c4ccc(OC5CCNCC5)cc4)cc3c2)cn1 [Compound 2864, N-(3-(1-Methyl-1H-pyrazol-4-yl)-1,7-naphthyridin-6-yl)-4-(piperidin-4-yloxy)benzamide] | > 10000 nM | 47.3% | 4.06 µM | – | 310 nM | > 10 µM | 10% | > 10 µM | 7.3% | 39 nM | > 10000 nM | – | > 10 µM
Cn1cc(-c2cnc3cnc(NC(=O)c4ccnc(N5CCNCC5)c4)cc3c2)cn1 [Compound 2866, N-(3-(1-Methyl-1H-pyrazol-4-yl)-1,7-naphthyridin-6-yl)-2-(piperazin-1-yl) isonicotinamide] | 2200 nM | – | 2.48 µM | – | 1600 nM | > 10 µM | 0% | > 10 µM | 47.4% | 41 nM | > 10000 nM | – | > 10 µM
CN1CCN(c2cc(C(=O)Nc3cc4cc(-c5cnn(C)c5)cnc4cn3)ccn2)CC1 [Compound 2867, N-(3-(1-methyl-1H-pyrazol-4-yl)-1,7-naphthyridin-6-yl)-2-(4-methylpiperazin-1-yl)isonicotinamide] | 9160 nM | – | 4.05 µM | – | 46 nM | > 10 µM | 5.2% | 5.38 µM | – | 36 nM | > 10000 nM | – | > 10 µM
CC(C)n1cc(C(=O)Nc2cc3nc(-c4cncc(NC5CCN(C)CC5)n4)ccc3cn2)cn1 [Compound 4565, 1-Isopropyl-N-(2-(6-((1-methylpiperidin-4-yl)amino)pyrazin-2-yl)-1,6-naphthyridin-7-yl)-1H-pyrazole-4-carboxamide] | 1950 nM | – | 1.55 µM | – | 42 nM | > 10 µM | 10.2% | > 10 µM | 31% | 12 nM | > 10000 nM | 1000 nM | –
CN1CCC(Nc2cc(C(=O)Nc3ncc4ccc(-c5cnn(C)c5)cc4n3)ccn2)CC1 [Compound 4569, N-(7-(1-Methyl-1H-pyrazol-4-yl)quinazolin-2-yl)-2-((1-methylpiperidin-4-yl)amino)isonicotinamide] | 570 nM | – | 2.22 µM | – | 238 nM | > 10 µM | 42.3% | 4.09 µM | – | 8 nM | > 10000 nM | – | –
CN1CCN(c2ncc(C(=O)Nc3cc4cc(-c5cnn(C)c5)ncc4cn3)s2)CC1 [Compound 4632, N-(6-(1-methyl-1H-pyrazol-4-yl)-2,7-naphthyridin-3-yl)-2-(4-methylpiperazin-1-yl)thiazole-5-carboxamide] | 922 nM | – | > 10 µM | 40.9% | – | > 10 µM | 6.8% | > 10 µM | 35.5% | 5 nM | 321 nM | 700 nM | 7.93 µM
